Reference: US20050137209A1, “Treatment of neurologic disorders with inhibitors of 11beta-HSD1” (AGY Therapeutics, Inc., priority 2003, published 2005)

How the values were obtained:
[1] = target: T1, human 11βHSD2 (Homo sapiens, UniProt P80365); settings: cited from earlier work
T1 sequence (P80365 1-405): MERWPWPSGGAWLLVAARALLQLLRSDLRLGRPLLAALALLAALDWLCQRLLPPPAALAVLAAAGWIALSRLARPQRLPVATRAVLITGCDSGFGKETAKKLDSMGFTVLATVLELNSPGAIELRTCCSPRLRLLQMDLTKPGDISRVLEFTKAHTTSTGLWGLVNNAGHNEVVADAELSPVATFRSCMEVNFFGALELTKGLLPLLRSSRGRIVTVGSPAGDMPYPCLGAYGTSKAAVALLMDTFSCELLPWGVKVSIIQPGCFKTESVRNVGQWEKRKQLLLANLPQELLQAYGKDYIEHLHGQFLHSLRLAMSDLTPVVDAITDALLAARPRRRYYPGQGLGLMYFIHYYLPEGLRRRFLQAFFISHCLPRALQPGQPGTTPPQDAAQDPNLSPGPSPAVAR

[2] = system: middle cerebral artery occlusion (MCAO) brain infarction; test: MCAO transient focal ischemia, BVT 2733 (Example 1); format: in vivo; settings: rat, 90 min MCAO, bolus 90 mg/kg at 4.5 h and 8.5 h post-occlusion, 24 h reperfusion
Description: BVT 2733 was tested in the following MCAO protocol. A middle cerebral artery (MCA) occlusion was used to induce temporary cerebral ischemia. It involves anesthetizing the rat, making an incision in the ventral neck region to isolate the common carotid artery and the internal and external carotid arteries. […] A silicone-coated mono filament is then inserted into the external carotid artery and woven through the artery into the internal carotid until it can occlude blood flow to the middle cerebral artery (MCA). The filament is removed after 90 min. After removal of the filament, the external carotid stump is tied shut and the clamps removed to allow the return of blood flow to the brain. The incision will be closed with wound clips. Post surgery, animals are observed until recovery from anesthesia.
During the surgery, animals are kept on a thermostat-regulated heating pad to maintain the body and head temperatures at 37° C. […]
The body core temperature of the animal is measured regularly, up to 1 day of recovery in some animals. […] Temperatures are measured manually using a rectal probe. […]
After 24 hours of reperfusion, the animals are sacrificed. […] Infarction volume was measured by digital imaging and image analysis software. Infarction volumes are determined in cortex and striatum and expressed as a percentage of the total brain volume. […]

[3] = system: middle cerebral artery occlusion (MCAO) brain infarction; test: MCAO transient focal ischemia, carbenoxolone (Example 2); format: in vivo, rat
Excerpt: The method used is a middle cerebral artery (MCA) occlusion to induce temporary cerebral ischemia. It involves anesthetizing the rat, making an incision in the ventral neck region to isolate the common carotid artery and the internal and external carotid arteries. […] A silicone-coated mono filament is then inserted into the external carotid artery and woven through the artery into the internal carotid until it can occlude blood flow to the middle cerebral artery (MCA). The filament can then be tied in place (permanent occlusion) or removed after a short amount of time depending on the desired degree of ischemic damage (3 minutes to 2 hours). After removal of the filament, the external carotid stump is tied shut and the clamps removed to allow the return of blood flow to the brain. The incision was closed with wound clips. Post surgery, animals were observed until recovery from anesthesia. During the surgery, animals were kept on a thermostat-regulated heating pad to maintain the body and head temperatures at 37° C. To inhibit the blood from clotting 90 IU.kg^−1 Heparin was administered intravenously to the animal after occlusion of MCAO. The body core temperature of the animal was measured regularly, up to 1 day of recovery in some animals. […] Temperatures are measured manually using a rat probe. […] Infarction volume was measured by digital imaging and image analysis software. […]

SMILES	IC50 [1]	neuroprotection (FIG. 1) [2]	infarction volume in cortex and striatum as percentage of total brain volume, versus vehicle ([2]; TTC staining)	neuroprotection ([3]; rat MCAO, carbenoxolone administered at 4 to 6 hours post-occlusion)	infarction volume in cortex and striatum as percentage of total brain volume, versus vehicle ([3]; rat, 90 min MCAO, bolus 20 mg at 5 min of reperfusion plus infusion 1.6 mg/h for 24 hours, TTC staining)
Cc1c(Cl)cccc1S(=O)(=O)Nc1nc(CC(=O)N2CCN(C)CC2)cs1 [BVT 2733, 3-Chloro-2-methyl-N-{4-[2-(4-methyl-piperazin-1-yl)-2-oxo-ethyl]-thiazol-2-yl}-benzenesulfonamide]	> 10 µM	potent and significant neuroprotection	smaller infarction compared to vehicle treated rats		
CC1(C)[C@@H](OC(=O)CCC(=O)O)CC[C@]2(C)[C@H]3C(=O)C=C4[C@@H]5C[C@@](C)(C(=O)O)CC[C@]5(C)CC[C@@]4(C)[C@]3(C)CC[C@@H]12 [carbenoxolone]				potent neuroprotection	smaller infarction compared to vehicle treated rats
